Source: patent US4011390A, “Semi-synthetic aminocyclitol aminoglycoside antibiotics and methods for the preparation thereof” (Schering-Plough Corporation, priority 1974, dated 1977)
Converted amounts (≈) assume the structure as drawn. Where two headings read alike, the source gives them in different places.

How the values were obtained:
Assay type in all cases: cell-based
Bacillus subtilis [1] = assay: Disc test, Bauer-Kirby technique with 10 Mcg. discs; conditions: Bacillus subtilis, ATCC6633, strain ATCC 6633
Description: (§1) Disc Test Results (Replicate Tests) With The Mutamicins, Sisomicin and
(§2) Bauer-Kirby Technique^1 With 10 Mcg. Discs
(§3) ^1 Bauer, Kirby, Sherris and Turck, American Journal of Clinical

Escherichia coli [2] = assay: as above; conditions: Escherichia coli, read-out: Zone Size
Description: as §1, §2, §3

Klebsiella pneumoniae [3] = assay: as above; conditions: Klebsiella pneumoniae
Description: as §1, §2, §3

Providence 164 = assay: as above; conditions: strain 164
Description: as §1, §2, §3

Pseudomonas aeruginosa [4] = assay: as above; conditions: Pseudomonas aeruginosa
Description: as §1, §2, §3

Staphylococcus aureus [5] = assay: as above; conditions: Staphylococcus aureus
Description: as §1, §2, §3

Streptococcus pyogenes [6] = assay: as above; conditions: Streptococcus pyogenes
Description: as §1, §2, §3

Aspergillus niger = assay: MIC in Mueller-Hinton Broth pH 7.2; conditions: pH 7.2
Description: (§4) In vitro Activity of the Mutamicins and Sisomicin
(§5) MIC's in Mueller-Hinton Broth pH 7.2

Bacillus subtilis [7] = assay: MIC in Mueller-Hinton Broth pH 7.2; conditions: ATCC6633, strain ATCC 6633
Description: as §4, §5

Candida albicans = assay: MIC in Mueller-Hinton Broth pH 7.2; conditions: pH 7.2
Description: as §4, §5

Escherichia coli [8] = assay: MIC in Mueller-Hinton Broth pH 7.2
Description: as §4, §5

Klebsiella pneumoniae [9] = assay: MIC in Mueller-Hinton Broth pH 7.2
Description: as §4, §5

Proteus rettgeri = assay: MIC in Mueller-Hinton Broth pH 7.2; conditions: Providencia rettgeri, pH 7.2
Description: as §4, §5

Providence [10] = assay: MIC in Mueller-Hinton Broth pH 7.2; conditions: strain (Genta. R.) 164
Description: as §4, §5

Pseudomonas aeruginosa [11] = assay: MIC in Mueller-Hinton Broth pH 7.2
Description: as §4, §5

Salmonella typhimurium = assay: MIC in Mueller-Hinton Broth pH 7.2; conditions: Salmonella enterica, strain B
Description: as §4, §5

Serratia = assay: MIC in Mueller-Hinton Broth pH 7.2; conditions: pH 7.2
Description: as §4, §5

Staphylococcus aureus [12] = assay: MIC in Mueller-Hinton Broth pH 7.2
Description: as §4, §5

Streptococcus pyogenes [13] = assay: MIC in Mueller-Hinton Broth pH 7.2
Description: as §4, §5

Trichophyton rubrum = assay: MIC in Mueller-Hinton Broth pH 7.2; conditions: pH 7.2
Description: as §4, §5

E. coli = assay: Activity against resistant strains; conditions: E. coli W677/R55 and LA290/R55
Description: (§6) In many instances, bacterial resistance is related to the organism's ability to inactivate the antibacterial agent via enzymatic (biochemical) means. Some species inactivate aminoglycosides antibiotics by acetylating the antibacterial agent, others by phosphorylation and still others by adenylylating. Some strains have several different inactivating capabilities. Further, the inactivation reactions occur at a specific site or sites on the antibacterial agent. We have shown by the compounds of this invention that alteration of sites on the antibiotic molecule not directly involved in inactivation processes can nevertheless frustrate these inactivation processes. […] The tables illustrate that the mutamicins include compounds which are active against strains having different mechanisms of inactivation of gentamicin, sisomicin, kanamycin, neomycin and torbramycin. For example, some mutamicins are effective against strains of E. coli which contain adenylylating R factors such as E. coli W677/R55 and LA290/R55. These E. coli strains are resistant to gentamicin, sisomicin and torbramycin. Some are also effective against gentamicin, tobramycin and kanamycin resistant adenylylating strains of Klebsiella pneumoniae and also kanamycin, neomycin phosphorylating strains of E. coli and Klebsiella pneumoniae. Further, some mutamicins are effective against gentamicin and sisomicin resistant strains of Pseudomonas aeruginosa and gentamicin, sisomicin, tobramycin resistant Providence which is sensitive to kanamycin. Thus, the mutamicins afford a means for combatting strains of bacteria which have already developed a variety of mechanisms for resisting the action of many of the antibiotics known in the art or currently in commercial use.

Providence [14] = assay: Activity against resistant strains; conditions: gentamicin, sisomicin, tobramycin resistant Providence
Description: as §6

Pseudomonas aeruginosa [15] = assay: Activity against resistant strains; conditions: gentamicin and sisomicin resistant strains
Description: as §6

CN[C@@H]1[C@@H](O)[C@@H](O[C@@H]2[C@@H](O)[C@H](O[C@H]3OC(CN)=CC[C@H]3N)[C@@H](N)C[C@H]2N)OC[C@]1(C)O [Sisomicin, O-2,6-Diamino-2,3,4,6-tetradeoxy-α-D-glycero-hex-4-eno-pryanosyl(1→4)-O-[3-deoxy-4-C-methyl-3-(methylamino)-B-L-arabinopyranosyl(1→6)] -2-deoxy-D-streptamine, reference compound]
zone of inhibition at 10 µg/disc (Bacillus subtilis [1]): 31 mm | zone of inhibition at 10 µg/disc (Escherichia coli [2]; ATCC10536, strain ATCC 10536, 10 Mcg. discs): 28 mm | zone of inhibition at 10 µg/disc (Escherichia coli [2]): 15 mm | zone of inhibition at 10 µg/disc (Escherichia coli [2]; strain 589, 10 Mcg. discs): 24 mm | zone of inhibition at 10 µg/disc (Escherichia coli [2]; strain JR88, 10 Mcg. discs): 11 mm | zone of inhibition at 10 µg/disc (Escherichia coli [2]; strain JR90, 10 Mcg. discs): 0 mm | zone of inhibition at 10 µg/disc (Escherichia coli [2]; strain LA290/R55, 10 Mcg. discs): 13 mm | zone of inhibition at 10 µg/disc (Escherichia coli [2]; strain Swidinsky 4195, 10 Mcg. discs): 24 mm | zone of inhibition at 10 µg/disc (Klebsiella pneumoniae [3]; strain Ad 17): 22 mm | zone of inhibition at 10 µg/disc (Klebsiella pneumoniae [3]; strain Ad 18): 23 mm | zone of inhibition at 10 µg/disc (Klebsiella pneumoniae [3]; strain Georgetown 3020): 13 mm | zone of inhibition at 10 µg/disc (Klebsiella pneumoniae [3]; strain Georgetown 3694): 14 mm | zone of inhibition at 10 µg/disc (Providence 164): 13 mm | zone of inhibition at 10 µg/disc (Pseudomonas aeruginosa [4]; strain Capetown 18): 14 mm | zone of inhibition at 10 µg/disc (Pseudomonas aeruginosa [4]; strain D-2): 24 mm | zone of inhibition at 10 µg/disc (Pseudomonas aeruginosa [4]; strain St. Michael 413): 26 mm | zone of inhibition at 10 µg/disc (Pseudomonas aeruginosa [4]; strain St. Michael 762): 25 mm | zone of inhibition at 10 µg/disc (Pseudomonas aeruginosa [4]; strain St. Michael 1262): 26 mm | zone of inhibition at 10 µg/disc (Pseudomonas aeruginosa [4]; strain St. Michael 1395): 26 mm | zone of inhibition at 10 µg/disc (Pseudomonas aeruginosa [4]; strain Stone 20): 27 mm | zone of inhibition at 10 µg/disc (Pseudomonas aeruginosa [4]; strain Stone 39): 25 mm | zone of inhibition at 10 µg/disc (Pseudomonas aeruginosa [4]; strain Stone 130): 14 mm | zone of inhibition at 10 µg/disc (Pseudomonas aeruginosa [4]; strain Stone 138): 10 mm | zone of inhibition at 10 µg/disc (Staphylococcus aureus [5]; ATCC6538P, strain ATCC 6538P): 25 mm | zone of inhibition at 10 µg/disc (Staphylococcus aureus [5]; strain 59N): 28 mm | zone of inhibition at 10 µg/disc (Staphylococcus aureus [5]; strain Wood): 29 mm | zone of inhibition at 10 µg/disc (Staphylococcus aureus [5]; strain Ziegler): 26 mm | zone of inhibition at 10 µg/disc (Streptococcus pyogenes [6]; strain B-Cruz): 15 mm | zone of inhibition at 10 µg/disc (Streptococcus pyogenes [6]; strain C): 13 mm | MIC (Aspergillus niger): > 25 µg/mL | MIC (Bacillus subtilis [7]): 0.03 µg/mL (≈ 0.067 µM) | MIC (Candida albicans): > 25 µg/mL | MIC (Escherichia coli [8]; ATCC10536, pH 7.2, strain ATCC 10536): 0.08 µg/mL (≈ 0.179 µM) | MIC (Escherichia coli [8]; pH 7.2, strain Baker 2): 0.3 µg/mL (≈ 0.67 µM) | MIC (Escherichia coli [8]; pH 7.2, strain Fl4-Bk): 0.3 µg/mL (≈ 0.67 µM) | MIC (Escherichia coli [8]; pH 7.2, strain Genta. adenyl LA290-R55): 17.5 µg/mL (≈ 39.1 µM) | MIC (Escherichia coli [8]; pH 7.2, strain Genta. adenyl W677/R55): 7.5 µg/mL (≈ 16.8 µM) | MIC (Escherichia coli [8]; pH 7.2, strain Kana. phosphor. 589): 0.8 µg/mL (≈ 1.79 µM) | MIC (Escherichia coli [8]; pH 7.2, strain Kana. phosphor. C-13): 0.3 µg/mL (≈ 0.67 µM) | MIC (Escherichia coli [8]; pH 7.2, strain Tobra. R 4195): 0.8 µg/mL (≈ 1.79 µM) | MIC (Klebsiella pneumoniae [9]; pH 7.2, strain Ad 18): 0.08 µg/mL (≈ 0.179 µM) | MIC (Klebsiella pneumoniae [9]; pH 7.2, strain Genta. adenyl 121): 0.08 µg/mL (≈ 0.179 µM) | MIC (Klebsiella pneumoniae [9]; pH 7.2, strain Genta. adenyl 3020): 7.5 µg/mL (≈ 16.8 µM) | MIC (Klebsiella pneumoniae [9]; pH 7.2, strain Genta. adenyl 3694): 7.5 µg/mL (≈ 16.8 µM) | MIC (Klebsiella pneumoniae [9]; pH 7.2, strain Kana. phos. Ad 22): 0.3 µg/mL (≈ 0.67 µM) | MIC (Proteus rettgeri): 0.8 µg/mL (≈ 1.79 µM) | MIC (Providence [10]): > 25 µg/mL | MIC (Pseudomonas aeruginosa [11]; pH 7.2): > 25 µg/mL | MIC (Pseudomonas aeruginosa [11]; pH 7.2, strain 762, Mueller-Hinton Broth pH 7.2, read-out: MIC): 0.3 µg/mL (≈ 0.67 µM) | MIC (Pseudomonas aeruginosa [11]; pH 7.2, strain 1262, Mueller-Hinton Broth pH 7.2, read-out: MIC): 0.8 µg/mL (≈ 1.79 µM) | MIC (Pseudomonas aeruginosa [11]; pH 7.2, strain 1395, Mueller-Hinton Broth pH 7.2, read-out: MIC): 0.08 µg/mL (≈ 0.179 µM) | MIC (Pseudomonas aeruginosa [11]; pH 7.2, strain D-2, Mueller-Hinton Broth pH 7.2, read-out: MIC): 0.08 µg/mL (≈ 0.179 µM) | MIC (Pseudomonas aeruginosa [11]; pH 7.2, strain Genta. acetyl Capetown 18, Mueller-Hinton Broth pH 7.2, read-out: MIC): 7.5 µg/mL (≈ 16.8 µM) | MIC (Pseudomonas aeruginosa [11]; pH 7.2, strain Genta. acetyl Stone 130, Mueller-Hinton Broth pH 7.2, read-out: MIC): 17.5 µg/mL (≈ 39.1 µM) | MIC (Pseudomonas aeruginosa [11]; pH 7.2, strain NRRL B3223, Mueller-Hinton Broth pH 7.2, read-out: MIC): 0.08 µg/mL (≈ 0.179 µM) | MIC (Pseudomonas aeruginosa [11]; pH 7.2, strain Stone 20, Mueller-Hinton Broth pH 7.2, read-out: MIC): 0.3 µg/mL (≈ 0.67 µM) | MIC (Pseudomonas aeruginosa [11]; pH 7.2, strain Stone 39, Mueller-Hinton Broth pH 7.2, read-out: MIC): 0.8 µg/mL (≈ 1.79 µM) | MIC (Pseudomonas aeruginosa [11]; pH 7.2, strain Stone 138, Mueller-Hinton Broth pH 7.2, read-out: MIC): 7.5 µg/mL (≈ 16.8 µM) | MIC (Salmonella typhimurium): 0.3 µg/mL (≈ 0.67 µM) | MIC (Serratia): 0.8 µg/mL (≈ 1.79 µM) | MIC (Staphylococcus aureus [12]; ATCC6538P, pH 7.2, strain ATCC 6538P): 0.08 µg/mL (≈ 0.179 µM) | MIC (Staphylococcus aureus [12]; pH 7.2, strain 59N): 0.03 µg/mL (≈ 0.067 µM) | MIC (Staphylococcus aureus [12]; pH 7.2, strain 1118): 3 µg/mL (≈ 6.7 µM) | MIC (Staphylococcus aureus [12]; pH 7.2, strain Grey): 3 µg/mL (≈ 6.7 µM) | MIC (Staphylococcus aureus [12]; pH 7.2, strain Wood): 0.03 µg/mL (≈ 0.067 µM) | MIC (Staphylococcus aureus [12]; pH 7.2, strain Ziegler): 0.08 µg/mL (≈ 0.179 µM) | MIC (Streptococcus pyogenes [13]; pH 7.2, strain 27): 3 µg/mL (≈ 6.7 µM) | MIC (Streptococcus pyogenes [13]; pH 7.2, strain Alvarez): 3 µg/mL (≈ 6.7 µM) | MIC (Streptococcus pyogenes [13]; pH 7.2, strain C): 3 µg/mL (≈ 6.7 µM) | MIC (Streptococcus pyogenes [13]; pH 7.2, strain Cruz): 3 µg/mL (≈ 6.7 µM) | MIC (Streptococcus pyogenes [13]; pH 7.2, strain Karipeds): 0.8 µg/mL (≈ 1.79 µM) | MIC (Streptococcus pyogenes [13]; pH 7.2, strain Labay): 3 µg/mL (≈ 6.7 µM) | MIC (Trichophyton rubrum): > 25 µg/mL | activity against strains containing adenylylating R factors (E. coli): resistant | activity against resistant Providence (Providence [14]): resistant | activity against resistant strains (Pseudomonas aeruginosa [15]): resistant
